Where “and” joins values, the source holds several entries; their conditions need not be identical. Equal values may be shown once.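 Where inhibition never reached the appropriate level, the endpoint shown equals the highest concentration tested. Otherwise, values were interpolated linearly from a five-concentration, 48-hour dose response in 96-well plates. GI50 marks 50% less growth. TGI: total growth inhibition.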
Legend:
Assay in all cases: NCI-60 cell line screen, 48 h
A549 NSCLC = test system: A549 NSCLC
CAKI-1 renal = test system: CAKI-1 renal
HCT-15 colon = test system: HCT-15 colon
K-562 leukemia = test system: K-562 leukemia
M14 melanoma = test system: M14 melanoma
MALME-3M melanoma = test system: MALME-3M melanoma
SF-295 CNS = test system: SF-295 CNS
U251 CNS = test system: U251 CNS
UACC-62 melanoma = test system: UACC-62 melanoma
CCRF-CEM leukemia = test system: CCRF-CEM leukemia

SMILES	TGI (A549 NSCLC)	TGI (CAKI-1 renal) [µM]	TGI (HCT-15 colon)	TGI (K-562 leukemia)	TGI (M14 melanoma) [µM]	TGI (MALME-3M melanoma) [µM]	TGI (SF-295 CNS)	TGI (U251 CNS)	TGI (UACC-62 melanoma)	TGI (CCRF-CEM leukemia)	GI50 (A549 NSCLC) [µM]	GI50 (HCT-15 colon) [µM]	GI50 (MALME-3M melanoma) [µM]	GI50 (UACC-62 melanoma) [µM]	GI50 (CAKI-1 renal) [µM]	GI50 (CCRF-CEM leukemia) [µM]	GI50 (K-562 leukemia) [µM]	GI50 (M14 melanoma) [µM]	GI50 (SF-295 CNS) [µM]	GI50 (U251 CNS) [µM]
COc1cccc(Nc2nc(-c3cccs3)nc3cc(OC)c(OC)cc23)c1	> 100 µM	73.4	49.3 µM	> 100 µM	82.2	> 100	53.1 µM	61.8 µM	39.8 µM											
O=C(OCc1ccccc1)N1CCNCCN(C(=O)OCc2ccccc2)CCNCC1	> 100 µM	55.1	> 100 µM	> 100 µM			64.3 µM	61 µM	70.3 µM	> 100 µM										
Nc1nc(SCCC/C=C/I)nc2c1ncn2C1OC(COP(=O)(O)O)C(O)C1O (centres undefined)	> 100 µM		> 100 µM	> 100 µM	> 100	> 100	> 100 µM	> 100 µM	> 100 µM	> 100 µM										
O=C1C=C[C@@H](COC2OC(CO)C(O)C(O)C2O)O1 (some centres undefined)	76.9 µM and 62.6 µM	40	21.5 µM and 16.4 µM	23.6 µM and > 100 µM		31.9	41.8 µM and 45 µM	31 µM and 30.9 µM	12 µM and 22.6 µM	13.9 µM and 40.8 µM	16.7	3.22	12.5	3.03						
CCOC(=O)Nc1sc2c(c1C#N)CCCC2		> 100	> 100 µM	> 100 µM		> 100	> 100 µM	> 100 µM	> 100 µM	> 100 µM										
Nc1nc(-c2ccccc2)nc2oc(-c3cccs3)nc12	> 100 µM		> 100 µM	> 100 µM	> 100		> 100 µM	> 100 µM	> 100 µM	> 100 µM										
c1ccc2c3[nH]c(c2c1)=Nc1ccc(cc1)-c1nc2cc(ccc2o1)N=c1[nH]c(c2ccccc12)=Nc1ccc2nc(oc2c1)-c1ccc(cc1)N=3		> 100	> 100 µM	> 100 µM	> 100		> 100 µM	> 100 µM	> 100 µM	> 100 µM										
O=c1[nH]c(=S)[nH]c2c1C(c1ccc([N+](=O)[O-])cc1)c1c([nH]c(=S)[nH]c1=O)O2	> 100 µM	> 100	> 100 µM	> 100 µM	> 100		> 100 µM	> 100 µM	> 100 µM	> 100 µM										
COc1ccc2cc1Oc1ccc(cc1)C[C@H]1c3cc(c(OC)cc3CCN1C)Oc1c(O)c(OC)cc3c1[C@H](C2)N(C)CC3	75 µM	3.55	33.5 µM	83.5 µM		52.5	39.7 µM	60.3 µM	44.7 µM	83.8 µM										
O=C1c2cc3c(cc2-c2c1c1ccc(F)cc1c(=O)n2C[C@H](O)[C@@H](O)[C@H](O)CO)OCO3	> 100 µM	0.371	0.766 µM	> 100 µM	0.599	0.565			0.123 µM	2.18 µM	0.226	0.183	0.185	0.025	0.0383	0.0344	0.0645	0.0443		
COc1ccc(N=NC(=Nc2ccccc2)c2ccc(N(CCC#N)CCC#N)cc2)cc1	> 100 µM	> 100	> 100 µM	> 100 µM	> 100		> 100 µM	> 100 µM	> 100 µM											
COc1ccc(-n2c(C)nc3ccc(NC(=S)Nc4ccccc4)cc3c2=O)cc1		> 100	> 100 µM	> 100 µM		> 100	> 100 µM	> 100 µM	> 100 µM											
Nc1nc2c(c(-c3cccc(Cl)c3)n1)COC/C2=C\c1cccc(Cl)c1		> 100	> 100 µM	> 100 µM	> 100	81.9	> 100 µM	> 100 µM	> 100 µM	> 100 µM										
Oc1ccc2c(c1)c1c(n2CCN2CCOCC2)-c2ccccc2CC1		> 100	66.1 µM	> 100 µM	57.3	53.2	> 100 µM	> 100 µM	48.1 µM	> 100 µM										
S=C(N/N=C(/c1ccccc1)c1ccccn1)N(Cc1ccccn1)Cc1ccccn1	2.01 µM	1.42		> 100 µM	2.97	2.45	1.82 µM		2.21 µM	> 100 µM										
Cc1cc(Nc2ccc(S(=O)(=O)O)c3cc(S(=O)(=O)O)cc(S(=O)(=O)O)c23)c2ccccc2n1	> 100 µM	> 100	> 100 µM		> 100	> 100	> 100 µM	> 100 µM	> 100 µM											
N=c1nnc2ccc(Cl)cc2n1O		> 100	> 100 µM	> 100 µM	> 100	> 100	> 100 µM	> 100 µM	> 100 µM	> 100 µM										
Cc1ccccc1OC(C)C(=O)NN1C(=O)CSC1c1ccccc1 (centres undefined)	> 100 µM	> 100	> 100 µM	> 100 µM	> 100	> 100	> 100 µM	> 100 µM	> 100 µM											
Nc1c(S(=O)(=O)O)cc2cc(S(=O)(=O)O)ccc2c1N=Nc1ccc(-c2ccc(N=Nc3c(N)c(S(=O)(=O)O)cc4cc(S(=O)(=O)O)ccc34)c(S(=O)(=O)O)c2)cc1	> 100 µM		> 100 µM	> 100 µM		> 100	> 100 µM	> 100 µM	> 100 µM	> 100 µM										
CCC(=O)NC(Nc1cc(C)on1)(C(F)(F)F)C(F)(F)F	> 100 µM	> 100	> 100 µM	> 100 µM	> 100	> 100		> 100 µM	> 100 µM	> 100 µM										
COc1cc(S(=O)(=O)Nc2nc(-c3ccc(N4C(=O)C(CC(=O)O)SC4c4cccs4)cc3)cs2)ccc1Cl (centres undefined)	> 100 µM	> 100	39.8 µM	> 100 µM	> 100	72.2	> 100 µM	> 100 µM	48.9 µM											
COc1ccc2[nH]cc(/C=C(/C)c3ccncc3)c2c1	> 100 µM	> 100	18.7 µM and 14 µM	> 100 µM		21.9	12.1 µM and 32.8 µM	11 µM and 67.9 µM	29.8 µM and 52.9 µM	> 100 µM	5.48	0.551	3.14						3.63	3.24

Source: PubChem BioAssay (NCI)
